We go through 1 compound from PMC12766721, “Regio- and Stereoselective Halogenation by an Iron(II)- and 2‑Oxoglutarate-Dependent Halogenase in the Biosynthesis of Halogenated Nucleosides” (Journal of the American Chemical Society, 2025).

In this test the target is AdeV. The experiment in a line: stopped-flow absorption kinetics (substrate-dependent formation of the […] nm chloro-ferryl feature), with freeze-quench Mössbauer and LC–MS turnover of purified enzyme. In kind it is biochemical, Actinomadura sp. ATCC 39365.

One may read the Kd as the free concentration of one partner at which half of the binding sites on the other are occupied at equilibrium, for simple one-to-one binding. The low end stands for higher affinity, the high end for lower affinity.

`Nc1ncnc2c1ncn2[C@H]1C[C@H](O)[C@@H](COP(=O)(O)O)O1` [compound 1, 2′-deoxyadenosine monophosphate]: the Kd was approximately 28 mM.
